Values after ≈ are worked out from the molar mass of the structure shown.
tested on: VRE ATCC700221; assay: Anti-bacterial activity, Bioscreen C growth curve: VRE; assay type: cell-based, vancomycin-resistant Enterococcus (VRE); conditions: Enterococcus, 35° C., 16 hours, negative control = 100, read-out: % of growth at 25 PPM compared to the negative control, VRE ATCC700221
Procedure: (§1) For the determination of the anti-bacterial and anti-fungal activity the Bioscreen C Analyser Labsystems, Finland, was used. This is an automated reader-incubator. It measures growth continuously by vertical photometry (optical density), processes the data and provides a print out of the results. The area under the growth curve is automatically determined via the Biolink software.
(§2) The inoculum size of the bacteria is standardized to approximately 5×10^5 CFU/ml.
(§3) For bacteria, the 100-honey-well plates containing test chemical, Mueller-Hinton broth and inoculum (=sample) are incubated at 35° C. for 16 hours. Also wells without inoculum are incubated (=blanco). Yeasts are incubated 35° C. for 24 hours in RPMI 1640+MOPS buffer at 165 mM. Moulds also in RPMI 1640+MOPS buffer at 165 mM are incubated 25° C. for 5 days. All micro-organisms are screened against a known concentration of the reference antibiotics or antimycotics such as vancomycin, penicillin G, gentamicin or amphotericin B. The growth curve and the area under the growth curve can be determined using the Biolink software; this is illustrated in FIG. 1.
(§4) The area of the blanco is subtracted from the area of the sample, this number (delta) gives us an indication of the biological activity of the molecules tested and can be expressed as a % of growth at a specific dose compared to a negative control that has a value of 100, illustrated in FIG. 2. Screening of each dose of a specific compound is repeated 5 times. The dose used for all new molecules in all tests is 25 PPM or 25 μg/ml.
(§5) In Table 4 the results of the anti-bacterial activity is given for the new molecules. The micro-organisms used are Staphylococcus aureus, MRSA, VRE, Enterococcus faecalis, Salmonella typhimurium and Pseudomonas aeruginosa.

SMILES	activity at 25 ppm
CO[C@@H]1[C@@H](OC)[C@H](Sc2ccccc2)O[C@@H]2COC(=O)CCCC/C=C/CCCCC(=O)O[C@@H]12 [KPE00001016.1]	61.8%
CO[C@@H]1[C@@H](OC)[C@H](Sc2ccccc2)O[C@@H]2COC(=O)CCCC/C=C\CCCCC(=O)O[C@@H]12 [KPE00001016.2]	81%

tested on: P. aeruginosa ATCC27853 LMG16217; assay: Anti-bacterial activity, Bioscreen C growth curve: P. aeruginosa; assay type: cell-based, Pseudomonas aeruginosa; conditions: Pseudomonas aeruginosa; 25 PPM; 35° C., 16 hours; negative control = 100; read-out: % of growth at 25 PPM compared to the negative control, P. aeruginosa ATCC27853 LMG16217
Procedure: as §1, §2, §3, §4, §5

SMILES	activity at 25 ppm
CO[C@@H]1[C@@H](OC)[C@H](Sc2ccccc2)O[C@@H]2COC(=O)CCCC/C=C/CCCCC(=O)O[C@@H]12 [KPE00001016.1]	29%
CO[C@@H]1[C@@H](OC)[C@H](Sc2ccccc2)O[C@@H]2COC(=O)CCCC/C=C\CCCCC(=O)O[C@@H]12 [KPE00001016.2]	79.8%

same assay, conditions: conclusion on Table 4

SMILES	anti-bacterial activity against P. aeruginosa, in words
CO[C@@H]1[C@@H](OC)[C@H](Sc2ccccc2)O[C@@H]2COC(=O)CCCC/C=C/CCCCC(=O)O[C@@H]12 [KPE00001016.1]	good anti-bacterial activity

tested on: HIV-2 (ROD); assay: Anti-viral activity: HIV-2-induced cytopathicity in human CEM cell cultures; assay type: cell-based; conditions: Human immunodeficiency virus 2, CCRF-CEM; concentration required to inhibit HIV-induced cytopathicity in human CEM cell cultures by 50%

SMILES	EC50
CO[C@@H]1[C@@H](OC)[C@H](Sc2ccccc2)O[C@@H]2COC(=O)CCCC/C=C/CCCCC(=O)O[C@@H]12 [KPE00001016.1]	> 4 µg/mL
CO[C@@H]1[C@@H](OC)[C@H](Sc2ccccc2)O[C@@H]2COC(=O)CCCC/C=C\CCCCC(=O)O[C@@H]12 [KPE00001016.2]	> 100 µg/mL

tested on: VZV YS; assay: Anti-viral activity: VZV-induced plaque formation in HEL cell cultures, YS strain; assay type: cell-based, varicella zoster virus (VZV); conditions: Human alphaherpesvirus 3, VZV-induced plaque formation in human embryonic lung HEL cell cultures, 50%

SMILES	EC50
CO[C@@H]1[C@@H](OC)[C@H](Sc2ccccc2)O[C@@H]2COC(=O)CCCC/C=C/CCCCC(=O)O[C@@H]12 [KPE00001016.1]	22 µg/mL (≈ 44.7 µM)
CO[C@@H]1[C@@H](OC)[C@H](Sc2ccccc2)O[C@@H]2COC(=O)CCCC/C=C\CCCCC(=O)O[C@@H]12 [KPE00001016.2]	> 50 µg/mL

tested on: E. faecalis ATTC29212 LMG 8222; assay: Anti-bacterial activity, Bioscreen C growth curve: E. faecalis; assay type: cell-based; conditions: Enterococcus faecalis, LMG8222, 35° C., 16 hours, negative control = 100, read-out: % of growth at 25 PPM compared to the negative control, E. faecalis ATTC29212 LMG 8222
Procedure: as §1, §2, §3, §4, §5

SMILES	activity at 25 ppm
CO[C@@H]1[C@@H](OC)[C@H](Sc2ccccc2)O[C@@H]2COC(=O)CCCC/C=C/CCCCC(=O)O[C@@H]12 [KPE00001016.1]	76.5%
CO[C@@H]1[C@@H](OC)[C@H](Sc2ccccc2)O[C@@H]2COC(=O)CCCC/C=C\CCCCC(=O)O[C@@H]12 [KPE00001016.2]	98.4%

tested on: VZV OKA; assay: microbe, parasite or virus in culture; assay type: cell-based, varicella zoster virus (VZV); conditions: Human alphaherpesvirus 3, HEL, read-out: EC50 VZV (HEL) OKA

SMILES	EC50
CO[C@@H]1[C@@H](OC)[C@H](Sc2ccccc2)O[C@@H]2COC(=O)CCCC/C=C/CCCCC(=O)O[C@@H]12 [KPE00001016.1]	5 µg/mL (≈ 10.1 µM)
CO[C@@H]1[C@@H](OC)[C@H](Sc2ccccc2)O[C@@H]2COC(=O)CCCC/C=C\CCCCC(=O)O[C@@H]12 [KPE00001016.2]	> 50 µg/mL

same assay, conditions: strain not named

SMILES	anti-viral activity against VZV, in words
CO[C@@H]1[C@@H](OC)[C@H](Sc2ccccc2)O[C@@H]2COC(=O)CCCC/C=C/CCCCC(=O)O[C@@H]12 [KPE00001016.1]	especially active

tested on: human T-lymphocyte cells (Molt4/C8); assay: Cytostatic activity: inhibition of proliferation of Molt4/C8 cells; assay type: cell-based; conditions: Molt4/C8, 50% inhibitory concentration, cell proliferation, read-out: IC50 Molt4/C8
Procedure: (§6) The compounds were tested for anti-tumor activity via the inhibitory effects on the proliferation of murine leukemia cells (L1210/0), murine mammary carcinoma cells (FM3A), human T-lymphocyte cells (Molt4/C8, CEM/0) and human cervix carcinoma cells (HeLa).

SMILES	IC50
CO[C@@H]1[C@@H](OC)[C@H](Sc2ccccc2)O[C@@H]2COC(=O)CCCC/C=C/CCCCC(=O)O[C@@H]12 [KPE00001016.1]	39 ± 1 µg/mL (≈ 79.2 µM)
CO[C@@H]1[C@@H](OC)[C@H](Sc2ccccc2)O[C@@H]2COC(=O)CCCC/C=C\CCCCC(=O)O[C@@H]12 [KPE00001016.2]	78 ± 53 µg/mL (≈ 158 µM)

tested on: HSV-1 (KOS); assay: Anti-viral activity: HSV-1-induced cytopathicity in human embryo fibroblast E6SM cell cultures; assay type: cell-based, herpes simplex virus (HSV); conditions: Human alphaherpesvirus 1, 50%

SMILES	EC50
CO[C@@H]1[C@@H](OC)[C@H](Sc2ccccc2)O[C@@H]2COC(=O)CCCC/C=C/CCCCC(=O)O[C@@H]12 [KPE00001016.1]	> 3.2 µg/mL
CO[C@@H]1[C@@H](OC)[C@H](Sc2ccccc2)O[C@@H]2COC(=O)CCCC/C=C\CCCCC(=O)O[C@@H]12 [KPE00001016.2]	> 3.2 µg/mL

tested on: murine mammary carcinoma cells (FM3A); assay: Cytostatic activity: inhibition of proliferation of FM3A cells; assay type: cell-based; conditions: Mus musculus, 50% inhibitory concentration, cell proliferation, read-out: IC50 FM3A/0
Procedure: as §6

SMILES	IC50
CO[C@@H]1[C@@H](OC)[C@H](Sc2ccccc2)O[C@@H]2COC(=O)CCCC/C=C/CCCCC(=O)O[C@@H]12 [KPE00001016.1]	108 ± 9 µg/mL (≈ 219 µM)
CO[C@@H]1[C@@H](OC)[C@H](Sc2ccccc2)O[C@@H]2COC(=O)CCCC/C=C\CCCCC(=O)O[C@@H]12 [KPE00001016.2]	> 200 µg/mL

tested on: VV; assay: microbe, parasite or virus in culture; assay type: cell-based; conditions: Orthopoxvirus vaccinia, E6SM, read-out: EC50 VV (E6SM)

SMILES	EC50
CO[C@@H]1[C@@H](OC)[C@H](Sc2ccccc2)O[C@@H]2COC(=O)CCCC/C=C/CCCCC(=O)O[C@@H]12 [KPE00001016.1]	> 3.2 µg/mL
CO[C@@H]1[C@@H](OC)[C@H](Sc2ccccc2)O[C@@H]2COC(=O)CCCC/C=C\CCCCC(=O)O[C@@H]12 [KPE00001016.2]	> 3.2 µg/mL

tested on: HIV-1 (IIIB); assay: microbe, parasite or virus in culture; assay type: cell-based; conditions: Human immunodeficiency virus 1, IIIB, CCRF-CEM; concentration required to inhibit HIV-induced cytopathicity in human CEM cell cultures by 50%

SMILES	EC50
CO[C@@H]1[C@@H](OC)[C@H](Sc2ccccc2)O[C@@H]2COC(=O)CCCC/C=C/CCCCC(=O)O[C@@H]12 [KPE00001016.1]	> 4 µg/mL
CO[C@@H]1[C@@H](OC)[C@H](Sc2ccccc2)O[C@@H]2COC(=O)CCCC/C=C\CCCCC(=O)O[C@@H]12 [KPE00001016.2]	> 100 µg/mL

tested on: MRSA ATCC33591; assay: Anti-bacterial activity, Bioscreen C growth curve: MRSA; assay type: cell-based, methicillin-resistant Staphylococcus aureus (MRSA); conditions: Staphylococcus aureus, ATCC 33591 / LMG10147 / MRSA; 25 PPM; 35° C., 16 hours; negative control = 100; read-out: % of growth at 25 PPM compared to the negative control, MRSA ATCC33591 LMG10147
Procedure: as §1, §2, §3, §4, §5

SMILES	activity at 25 ppm
CO[C@@H]1[C@@H](OC)[C@H](Sc2ccccc2)O[C@@H]2COC(=O)CCCC/C=C/CCCCC(=O)O[C@@H]12 [KPE00001016.1]	115%
CO[C@@H]1[C@@H](OC)[C@H](Sc2ccccc2)O[C@@H]2COC(=O)CCCC/C=C\CCCCC(=O)O[C@@H]12 [KPE00001016.2]	104%

tested on: S. typhimurium ATTC700408; assay: Anti-bacterial activity, Bioscreen C growth curve: S. typhimurium; assay type: cell-based; conditions: Salmonella enterica, LMG16217 / TYPHIMURIUM, 35° C., 16 hours, negative control = 100, read-out: % of growth at 25 PPM compared to the negative control, S. typhimurium ATTC700408 LMG16217
Procedure: as §1, §2, §3, §4, §5

SMILES	activity at 25 ppm
CO[C@@H]1[C@@H](OC)[C@H](Sc2ccccc2)O[C@@H]2COC(=O)CCCC/C=C/CCCCC(=O)O[C@@H]12 [KPE00001016.1]	76.4%
CO[C@@H]1[C@@H](OC)[C@H](Sc2ccccc2)O[C@@H]2COC(=O)CCCC/C=C\CCCCC(=O)O[C@@H]12 [KPE00001016.2]	87%

tested on: S. aureus ATTC29213 LMG10147; assay: Anti-bacterial activity, Bioscreen C growth curve: S. aureus; assay type: cell-based; conditions: Staphylococcus aureus, 35° C., 16 hours, negative control = 100, read-out: % of growth at 25 PPM compared to the negative control, S. aureus ATTC29213 LMG10147
Procedure: as §1, §2, §3, §4, §5

SMILES	activity at 25 ppm
CO[C@@H]1[C@@H](OC)[C@H](Sc2ccccc2)O[C@@H]2COC(=O)CCCC/C=C/CCCCC(=O)O[C@@H]12 [KPE00001016.1]	103%
CO[C@@H]1[C@@H](OC)[C@H](Sc2ccccc2)O[C@@H]2COC(=O)CCCC/C=C\CCCCC(=O)O[C@@H]12 [KPE00001016.2]	97%

tested on: human cervix carcinoma cells (HeLa); assay: Cytostatic activity: inhibition of proliferation of HeLa cells; assay type: cell-based; conditions: 50% inhibitory concentration, cell proliferation
Procedure: as §6

SMILES	IC50
CO[C@@H]1[C@@H](OC)[C@H](Sc2ccccc2)O[C@@H]2COC(=O)CCCC/C=C/CCCCC(=O)O[C@@H]12 [KPE00001016.1]	19 ± 5 µg/mL (≈ 38.6 µM)
CO[C@@H]1[C@@H](OC)[C@H](Sc2ccccc2)O[C@@H]2COC(=O)CCCC/C=C\CCCCC(=O)O[C@@H]12 [KPE00001016.2]	169 ± 44 µg/mL (≈ 343 µM)

Reference: US7534871B2, “Preparation and use of carbohydrate-based bicyclic ring structures with antimicrobial and cytostatic activity” (Kemin Pharma B.V.B.A., priority 2004, dated 2009)
